# Laboratory results: patent US6037334A, “Phosphonates, process for preparing the same and medicaments” (Roche Diagnostics GmbH, priority 1996, dated 2000)
# Where a name gives a salt, the structure may show the parent alone.
# What was measured:
# citrate plasma = experiment: Activated Partial Thromboplastin Time (APTT); assay type: biochemical, human; details: difference to the control, 37° C.
# Protocol: (§1) 9 parts of fresh blood from healthy donors was mixed with one part of sodium citrate solution (0.11 mol/l) and it was centrifuged for 10 minutes at room temperature at ca. 3000 r.p.m. The plasma was removed by pipette and can be stored at room temperature for ca. 8 hours.
# Activated Partial Thromboplastin Time (APTT)
# 100 μl citrate plasma and 100 μl APTT reagent (Stago Diagnostics/Boehringer Mannheim GmbH; contains cephalin lyophilisate with a microcrystalline kieselguhr activator) are incubated for 3 minutes at 37° C. together with 10 μl dimethylsulfoxide (DMSO) or 10 μl of a solution of the active substance in DMSO in a ball coagulometer (KC10 from the Amelung Company). On addition of 100 μl 0.025 M calcium chloride solution a stopwatch is started and the time at which coagulation starts is determined. The APTT is ca. 28-35 seconds in the control measurements and is extended by the active substances. If no coagulation occurred in the measurements after 5 minutes the experiment was stopped (>300).
# The measured APTT times in seconds are given in table 1 as a difference to the control. The concentrations of the active substances in the final volume were 100 μM (APTT 100), 10 μM (APTT 10), 1 μM (APTT 1), 0.1 μM (APTT 0.1).
# horse thrombin = experiment: Thrombin Time; assay type: biochemical; details: 500 μM final; difference to the control; 37° C.; citrate plasma, ca. 3 U/ml horse thrombin
# Protocol: as §1
# 200 μl citrate plasma is incubated for 2 minutes at 37° C. in a ball coagulometer (KC10 from the Amelung Company). 10 μl dimethylsulfoxide (DMSO) or a solution of the active substance in DMSO is added to 190 μl pre-heated thrombin reagent (Boehringer Mannheim GmbH; contains ca. 3 U/ml horse thrombin and 0.0125 M Ca^++). On addition of 200 μl of this solution to the plasma a stopwatch is started and the time at which coagulation starts is determined. The thrombin time is ca. 24 sec. in control measurements and is extended by the active substances. If no coagulation occurred in the measurements after 5 minutes the experiment was stopped (>300).
# The measured thrombin times in seconds are given in table 1 as a difference to the control. The concentrations of the active substances in the final volume were 500 μM (TT 500).
# human factor Xa = human factor Xa (Homo sapiens, UniProt P00742); experiment: biochemical
# Sequence of human factor Xa (P00742 235-488 limits assumed): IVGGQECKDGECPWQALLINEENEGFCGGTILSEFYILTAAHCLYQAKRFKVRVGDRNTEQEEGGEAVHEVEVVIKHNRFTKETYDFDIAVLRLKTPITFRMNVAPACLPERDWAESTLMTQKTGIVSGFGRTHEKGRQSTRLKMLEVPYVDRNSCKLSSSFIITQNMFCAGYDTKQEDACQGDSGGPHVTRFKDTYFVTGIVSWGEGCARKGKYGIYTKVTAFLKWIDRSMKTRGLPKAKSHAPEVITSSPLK
# Sequence of human factor Xa (P00742 41-179 partner limits assumed): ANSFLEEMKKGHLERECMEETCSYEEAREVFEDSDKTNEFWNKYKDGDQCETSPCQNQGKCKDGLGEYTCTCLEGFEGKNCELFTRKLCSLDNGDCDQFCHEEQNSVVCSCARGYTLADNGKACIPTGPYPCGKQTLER
# Protocol: The kinetic measurements were carried out at pH=7.5 and 25° C. in 0.1 M phosphate buffer that contained 0.2 M sodium chloride and 0.5% polyethylene glycol 6000 (see below for preparation) in polystyrene semi-microcuvettes in a total volume of 1 ml. The reactions were started by addition of enzyme to pre-incubated solutions that contained either dimethyldisulfoxide (control) or solutions of the test substance in DMSO (inhibitor stock solutions: 10 mM in DMSO). The increase in absorbance at 405 nm due to the release of p-nitroaniline from the substrate was monitored over a time period of 12 minutes.
# The inhibition constants Ki were determined as follows. […] KM and Vmax were determined from a measurement series (constant inhibitor concentration, variable substrate concentrations) by a non-linear fit to the equation [formula]
# The Ki value is obtained by non-linear regression from the entire series of measurements with 16 sets of data (measurements at 4 different substrate concentrations and each with 4 different inhibitor concentrations) from the equation [formula] in which VMax denotes the maximum rate in the absence of an inhibitor, KM denotes the Michaelis constant and [S] the substrate concentration. […]
compound,measurement,setting,value
"CCOP(=O)(OCC)C(Oc1ccc2ccc(C(=N)N)cc2c1)c1ccc(OC2CCN(C(C)=N)CC2)cc1 (stereo not drawn) [Example 1, (7-Carbamimidoyl-naphthalen-2-yloxy)-[{4-[1-(1-imino-ethyl)-piperidin-4-yloxy]-phenyl}-methyl)-phosphonic acid diethyl ester-dihydrochloride]",APTT 0.1,citrate plasma; 0.1 μM final,8 s
same,APTT 1,citrate plasma; 1 μM final,45 s
same,APTT 10,"citrate plasma; 10 μM final, >300 = no coagulation after 5 minutes",> 300 s
same,APTT 100,"citrate plasma; 100 μM final, >300 = no coagulation after 5 minutes",> 300 s
same,TT 500,horse thrombin,49 s
same,Ki,human factor Xa,2 nM
